PMC3632402 (Analytical biochemistry, 2012)

Assays:
rat sEH = target: T1, rat sEH (Rattus norvegicus, UniProt P80299); experiment: Fluorescence binding assay of reporter ACPU on rat sEH
T1 sequence (P80299 1-554): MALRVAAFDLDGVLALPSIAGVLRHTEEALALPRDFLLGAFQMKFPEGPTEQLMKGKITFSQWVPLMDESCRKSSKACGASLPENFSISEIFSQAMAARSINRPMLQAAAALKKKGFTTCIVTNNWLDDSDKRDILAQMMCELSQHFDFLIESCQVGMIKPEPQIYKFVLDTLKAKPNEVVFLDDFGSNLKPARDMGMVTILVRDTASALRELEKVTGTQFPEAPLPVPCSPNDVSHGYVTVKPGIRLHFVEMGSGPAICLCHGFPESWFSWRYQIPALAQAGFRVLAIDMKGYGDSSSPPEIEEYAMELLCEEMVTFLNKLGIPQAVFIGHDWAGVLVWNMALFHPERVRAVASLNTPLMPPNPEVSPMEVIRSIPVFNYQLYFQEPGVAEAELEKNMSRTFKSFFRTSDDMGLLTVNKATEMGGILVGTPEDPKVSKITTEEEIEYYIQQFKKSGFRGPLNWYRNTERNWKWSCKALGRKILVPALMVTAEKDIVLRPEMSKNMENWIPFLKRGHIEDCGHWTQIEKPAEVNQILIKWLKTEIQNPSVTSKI

murine sEH = target: T2, murine sEH (Mus musculus, UniProt P34914); experiment: Fluorescence binding assay of reporter ACPU on murine sEH
T2 sequence (P34914 1-554): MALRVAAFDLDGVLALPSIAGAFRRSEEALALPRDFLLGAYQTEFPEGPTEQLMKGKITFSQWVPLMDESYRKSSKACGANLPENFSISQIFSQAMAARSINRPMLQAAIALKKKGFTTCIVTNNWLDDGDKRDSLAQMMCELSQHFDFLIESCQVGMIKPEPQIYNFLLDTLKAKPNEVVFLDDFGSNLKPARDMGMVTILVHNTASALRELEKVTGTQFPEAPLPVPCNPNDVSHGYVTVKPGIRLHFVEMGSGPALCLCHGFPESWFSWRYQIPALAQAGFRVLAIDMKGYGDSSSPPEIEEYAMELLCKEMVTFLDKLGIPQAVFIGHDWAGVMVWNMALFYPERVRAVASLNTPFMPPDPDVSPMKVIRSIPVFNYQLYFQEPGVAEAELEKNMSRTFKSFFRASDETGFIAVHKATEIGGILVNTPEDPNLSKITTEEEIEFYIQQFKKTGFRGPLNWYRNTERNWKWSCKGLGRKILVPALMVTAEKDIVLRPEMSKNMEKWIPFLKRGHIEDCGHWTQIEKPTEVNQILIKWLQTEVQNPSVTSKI

hsEH = target: T3, hsEH (Homo sapiens, UniProt P34913); experiment: Fluorescence binding assay
T3 sequence (P34913 1-555): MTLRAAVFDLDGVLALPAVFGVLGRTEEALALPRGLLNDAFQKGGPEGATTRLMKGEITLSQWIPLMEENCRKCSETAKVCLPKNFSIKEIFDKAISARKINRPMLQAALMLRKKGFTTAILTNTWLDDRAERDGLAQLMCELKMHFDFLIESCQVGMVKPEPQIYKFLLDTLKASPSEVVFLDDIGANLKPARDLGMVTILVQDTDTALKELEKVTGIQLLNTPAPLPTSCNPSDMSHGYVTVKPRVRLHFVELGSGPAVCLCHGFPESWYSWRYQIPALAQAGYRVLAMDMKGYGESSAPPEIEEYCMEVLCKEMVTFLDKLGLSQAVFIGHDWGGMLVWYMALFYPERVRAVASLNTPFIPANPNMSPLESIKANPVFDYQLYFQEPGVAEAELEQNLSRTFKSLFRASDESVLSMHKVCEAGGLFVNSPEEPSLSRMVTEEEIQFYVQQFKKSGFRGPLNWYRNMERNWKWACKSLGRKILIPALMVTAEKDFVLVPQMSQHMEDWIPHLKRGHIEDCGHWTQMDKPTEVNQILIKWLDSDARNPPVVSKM

Kd (rat sEH): 0.17 nM
Kd (murine sEH): 0.1 nM
Kd (hsEH): 1.04 ± 0.04 nM
time needed to reach the equilibrium between ACPU and sEH (hsEH; FRET signal at 450 nm): 40 min
SMILES: O=C(NC1CCN(C(=O)Cc2cc(=O)oc3cc(O)ccc23)CC1)NC12CC3CC(CC(C3)C1)C2 [ACPU, 1-(adamantan-1-yl)-3-(1-(2-(7-hydroxy-2-oxo-2H-chromen-4-yl)acetyl)piperidin-4-yl)urea]
